Data on four compounds can be found in US9487570B2, “Glucagon like peptide analogs, composition, and method of use” (BETTA PHARMACEUTICALS CO., LTD, priority 2010, dated 2016).

In data set [1] the test system is cloned human GLP-1 receptor. Description: cAMP formation in a cell line expressing the cloned human GLP-1 receptor. The note with it: 2 h at 37 °C, cAMP by scintillation proximity assay; read-out: Cell based cAMP ED50. For orientation: Changes in cAMP serve as a functional read-out for many G protein-coupled receptors.
Another data set has as its target DPP-IV (Homo sapiens, UniProt P27487). Description: Stability to DPP-IV in vitro. Conditions: isolated DPP-IV enzyme, pH 7.4.
The conditions of data set [2]: from U.S. Pat. No. 5,118,666; cited from earlier work.

Chain of DPP-IV (P27487 whole entry, species assumed): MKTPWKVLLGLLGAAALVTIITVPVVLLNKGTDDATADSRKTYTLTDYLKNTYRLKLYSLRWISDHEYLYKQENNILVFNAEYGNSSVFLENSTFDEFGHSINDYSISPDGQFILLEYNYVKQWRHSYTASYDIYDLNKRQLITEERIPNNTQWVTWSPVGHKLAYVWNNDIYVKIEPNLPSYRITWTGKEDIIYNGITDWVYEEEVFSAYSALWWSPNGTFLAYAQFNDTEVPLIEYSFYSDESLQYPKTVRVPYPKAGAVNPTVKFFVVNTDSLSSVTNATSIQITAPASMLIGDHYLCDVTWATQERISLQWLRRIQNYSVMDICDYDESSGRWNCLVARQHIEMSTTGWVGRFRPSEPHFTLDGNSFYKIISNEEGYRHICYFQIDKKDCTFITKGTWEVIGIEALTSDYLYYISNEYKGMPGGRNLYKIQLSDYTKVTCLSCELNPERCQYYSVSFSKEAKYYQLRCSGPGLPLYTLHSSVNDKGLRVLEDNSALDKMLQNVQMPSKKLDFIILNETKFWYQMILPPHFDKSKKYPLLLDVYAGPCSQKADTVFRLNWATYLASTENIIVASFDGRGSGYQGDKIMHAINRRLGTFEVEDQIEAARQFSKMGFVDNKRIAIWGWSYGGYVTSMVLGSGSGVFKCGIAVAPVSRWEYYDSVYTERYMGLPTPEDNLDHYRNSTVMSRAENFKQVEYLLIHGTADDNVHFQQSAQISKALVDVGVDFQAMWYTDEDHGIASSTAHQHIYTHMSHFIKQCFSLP
Procedure for DPP-IV: DPP-IV (5 mU, 900 μL) was added, and the solutions were incubated at 37 ° C. At the indicated time points, 100 μL was removed from the reaction mixture, and reactions were terminated by the addition of 5 μL of 10% (v/v) TFA. Each sample was analyzed by MALDI-TOF MS and RP-HPLC as described.

In the case of `CC[C@H](C)[C@H](NC(=O)[C@H](Cc1ccccc1)NC(=O)[C@H](CCC(=O)O)NC(=O)[C@H](CCCCN)NC(=O)[C@H](C)NC(=O)[C@H](C)NC(=O)[C@H](CCC(N)=O)NC(=O)CNC(=O)[C@H](CCC(=O)O)NC(=O)[C@H](CC(C)C)NC(=O)[C@H](Cc1ccc(O)cc1)NC(=O)[C@H](CO)NC(=O)[C@H](CO)NC(=O)[C@@H](NC(=O)[C@H](CC(=O)O)NC(=O)[C@H](CO)NC(=O)[C@@H](NC(=O)[C@H](Cc1ccccc1)NC(=O)[C@@H](NC(=O)CNC(=O)[C@H](CCC(=O)O)NC(=O)[C@H](C)NC(=O)[C@@H](N)Cc1c[nH]cn1)[C@@H](C)O)[C@@H](C)O)C(C)C)C(=O)N[C@@H](C)C(=O)N[C@@H](Cc1c[nH]c2ccccc12)C(=O)N[C@@H](CC(C)C)C(=O)N[C@H](C(=O)N[C@@H](CCCCN)C(=O)NCC(=O)N[C@@H](CCCNC(=N)N)C(N)=O)C(C)C` [GLP-1, reference compound], the EC50 in data set [1] turned out to be 0.06 nM. On DPP-IV, `CCCCCCCCCCCCCCCC(=O)N[C@@H](CCC(=O)NCCCC[C@H](NC(=O)[C@H](C)NC(=O)[C@H](C)NC(=O)[C@H](CCC(N)=O)NC(=O)CNC(=O)[C@H](CCC(=O)O)NC(=O)[C@H](CC(C)C)NC(=O)[C@H](Cc1ccc(O)cc1)NC(=O)[C@H](CO)NC(=O)[C@H](CO)NC(=O)[C@@H](NC(=O)[C@H](CC(=O)O)NC(=O)[C@H](CO)NC(=O)[C@@H](NC(=O)[C@H](Cc1ccccc1)NC(=O)[C@@H](NC(=O)CNC(=O)[C@@H](/C=C/[C@H](C)NC(=O)[C@@H](N)Cc1c[nH]cn1)CCC(=O)O)[C@@H](C)O)[C@@H](C)O)C(C)C)C(=O)N[C@@H](CCC(=O)O)C(=O)N[C@@H](Cc1ccccc1)C(=O)N[C@H](C(=O)N[C@@H](C)C(=O)N[C@@H](Cc1c[nH]c2ccccc12)C(=O)N[C@@H](CC(C)C)C(=O)N[C@H](C(=O)N[C@@H](CCCNC(=N)N)C(=O)NCC(=O)N[C@@H](CCCNC(=N)N)C(=O)NCC(=O)O)C(C)C)[C@@H](C)CC)C(=O)O` [N-ε^26-[γ-L-glutamyl(N-α-hexadecanoyl)]-[Q-linker-a8-9,Arg34]GLP-1-(7-37)-peptide] displayed a fraction remaining at 1 h, 0.5 nmol/L of 98% and an amount remaining at 24 h, 0.5 nmol/L of 98%. For `CCCCCCCCCCCCCCCC(=O)N[C@@H](CCC(=O)NCCCC[C@H](NC(=O)[C@H](C)NC(=O)[C@H](C)NC(=O)[C@H](CCC(N)=O)NC(=O)CNC(=O)[C@H](CCC(=O)O)NC(=O)[C@H](CC(C)C)NC(=O)[C@H](Cc1ccc(O)cc1)NC(=O)[C@H](CO)NC(=O)[C@H](CO)NC(=O)[C@@H](NC(=O)[C@H](CC(=O)O)NC(=O)[C@H](CO)NC(=O)[C@@H](NC(=O)[C@H](Cc1ccccc1)NC(=O)[C@@H](NC(=O)CNC(=O)[C@H](CCC(=O)O)N[C@@H]([C@H](C)NC(=O)[C@@H](N)Cc1c[nH]cn1)C(F)(F)F)[C@@H](C)O)[C@@H](C)O)C(C)C)C(=O)N[C@@H](CCC(=O)O)C(=O)N[C@@H](Cc1ccccc1)C(=O)N[C@H](C(=O)N[C@@H](C)C(=O)N[C@@H](Cc1c[nH]c2ccccc12)C(=O)N[C@@H](CC(C)C)C(=O)N[C@H](C(=O)N[C@@H](CCCNC(=N)N)C(=O)NCC(=O)N[C@@H](CCCNC(=N)N)C(=O)NCC(=O)O)C(C)C)[C@@H](C)CC)C(=O)O` [N-ε^26-[γ-L-glutamyl(N-α-hexadecanoyl)]-[Q-linker-d8,Arg34]GLP-1-(7-37)-peptide], at DPP-IV, the fraction remaining at 1 h, 0.5 nmol/L amounted to 98% and the amount remaining at 24 h, 0.5 nmol/L came to 98%.

For the compound GLP-1(7-37)OH, in data set [2], the biological half-life is on record as 3 to 5 minutes.

Usually fraction remaining stands for what is left of the initial amount, in per cent. Low values mean a greater loss, high ones greater stability.
